In data set [1] the test system is gastric acid secretion. Kind of data set: Shay test (pylorus-ligated rats, gastric acid secretion-inhibiting activity). The class given is in vivo, rat. The note with it: female rats, i.d.; for ED50: Rattus norvegicus, 4 h. How it is done: The two experimental procedures described hereinafter were used to determine the gastric acid secretion-inhibiting activity: Shay test The pylorus of female rats, which had received no food for 24 hours but which had received water ad libitum, is ligatured under slight ether narcosis in accordance with Shay et al. [Gastroenterology 5, 43 (1945)]. Immediately thereafter the substances to be tested are administered intraduodenally to the animals. Four (4) hours later the animals are killed. The volume and the acidity of their gastric juice are determined and the values obtained are compared with those of control animals which were treated similarly, but had received no test substance. The ED 50 is defined as the dosage of test substance which brings about a 50% reduction of volume or acidity of the gastric juice in the treated animals compared with the control animals.

The subject of data set [2] is acid secretion caused by 4-methylhistamine dihydrochloride. Kind of data set: Heidenhain test (gastric pouch dogs, inhibition of 4-methylhistamine-stimulated acid secretion). Format: in vivo, dog. The note with it: 50% inhibition of acid secretion caused by 4-methylhistamine dihydrochloride infusion; for ED50: Canis lupus familiaris, po, read-out: Heidenhain test ED 50. How it is done:
The two experimental procedures described hereinafter were used to determine the gastric acid secretion-inhibiting activity: Heidenhain test A part of the stomach fundus of female and male dogs is separated from the remaining stomach in the form of a pouch according to the […] technique [described by Rudick et al. in J. Surgical Research 7, 383-398 (1967)]. In the pouch there is fitted a steel cannula which is conducted externally through the abdominal wall. The secretion experiments are commenced after about 6 weeks. Before each experiment the animals receive no food for 18 hours, but receive water ad libitum. They are conscious during the experiment. A saphenous vein is cannulated for an infusion of 4-methylhistamine dihydrochloride, a selective stimulator of the histamine H2 -receptors. An appropriate infusion rate of the 4-methylhistamine dihydrochloride ([…], intravenously) is ascertained for each animal in preliminary experiments. During the entire main experiment the gastric secretion is stimulated by the infusion of 4-methylhistamine dihydrochloride, and 15 minute fractions of the gastric juice are collected continuously. As soon as volume and pH of these fractions show constant values, the test substances are administered orally. The ED 50 is defined as that dosage of test substance which brings about a 50% inhibition of the acid secretion caused by 4-methylhistamine dihydrochloride in the treated animals compared with the controls.

A short description of data set [3]: Preliminary toxicity in the mouse. The conditions noted are these: in vivo, po, read-out: Prel. tox mouse. On the procedure:
Representative compounds of formula I of the invention were tested for their gastric acid secretion-inhibiting activity, for their anti-ulcer activity, as well as for their toxicity.
In Table I, which follows, the names of the compounds tested as well as the results of the testing for their gastric secretion-inhibiting activity, for their anti-ulcer activity and for their toxicity are given.

The subject of data set [4] is ulcers of the duodenum. Kind of data set: Anti-ulcer activity (ulcers of the duodenum induced by 4-methylhistamine and carbachol in guinea pigs). The conditions noted are these: i.g.; for ED50: Cavia porcellus, po, read-out: Anti-ulcer ED 50. Format: in vivo, guinea pig. On the procedure: Before the beginning of the testing a group of 10 guinea pigs, body weight 280 to 320 g, of the same sex receives no food for 24 hours, but receives water ad libitum. Various doses of the test substance or of the appropriate vehicle (control) are administered intragastrically. The test is repeated on different days with other groups of guinea pigs in order to avoid the influence of daily variations.

[5] abbreviates: 50% reduction of acidity of gastric juice, read-out: Shay test ED 50 Acid.
Setting [6] is: 50% reduction of volume of gastric juice, read-out: Shay test ED 50 Vol.

The source of these data is patent US4599347A, “Tetrahydro-naphth (2.3-d) imidazole derivatives” (Hoffmann-La Roche Inc., priority 1980, dated 1986).

Where a name gives a salt, the structure may show the parent alone. Read-outs that look alike come from different tables or passages of the source.

Turning to `CC1(C)C(=O)C(C)(C)c2cc3[nH]c(SCc4ccccn4)nc3cc21` [5,7-dihydro-5,5,7,7-tetramethyl-2-[(2-pyridylmethyl)thio]indeno(5,6-d)imidazol-6(1H)-one], the ED50 in data set [1] (setting [5]) worked out at 9 mg/kg; in data set [1] (setting [6]), 20 mg/kg; in data set [2], 5.5 mg/kg; in data set [4], 32 mg/kg. Moreover, the LD50 in data set [3] was 2500 mg/kg.
In the same order, the values of `Cc1ccc(C[S+]([O-])c2nc3cc4c(cc3[nH]2)OCO4)nc1` (stereo not shown) [6-[[(5-methyl-2-pyridyl)methyl]sulfinyl]-5H-1,3-dioxolo(4,5-f)-benzimidazole] are 28 mg/kg, 65 mg/kg, 2.3 mg/kg, 14 mg/kg and 5000 mg/kg.
In the case of `Cc1ccc(CSc2nc3cc4c(cc3[nH]2)OCO4)nc1` [6-[[(5-methyl-2-pyridyl)methyl]thio]-5H-1,3-dioxolo(4,5-f)benzimidazole], the ED50 in data set [1] (setting [5]) amounted to 100 mg/kg; in data set [1] (setting [6]), 100 mg/kg; in data set [2], 1.8 mg/kg; in data set [4], 18 mg/kg.
Turning to `c1ccc(CSc2nc3cc4c(cc3[nH]2)OCO4)nc1` [6-[(2-Pyridylmethyl)thio]-5H-1,3-dioxolo(4,5-f)-benzimidazole.2HCl], the ED50 was 29 mg/kg in data set [1] (setting [5]), 35 mg/kg in data set [1] (setting [6]), 2.6 mg/kg in data set [2] and 17 mg/kg in data set [4]. Further, the LD50 in data set [3] amounted to 1250 mg/kg.
For `Cc1ccc(CSc2nc3cc4c(cc3[nH]2)OCO4)nc1` [6-[[(5-Methyl-2-pyridyl)-methyl]thio]-5H--1,3-dioxolo-(4,5-f)benzimidazole dihydrochloride], the “Shay test ED 50 Acid” value in data set [1] (4 hours, 50% reduction of acidity of gastric juice, dihydrochloride, 240 min) is listed as 65 mg/kg. Moreover, in data set [1] (4 hours, 50% reduction of volume of gastric juice, dihydrochloride, 240 min), the “Shay test ED 50 Vol” value came out at 75 mg/kg. Besides, the “Heidenhain test ED 50” value in data set [2] (p.o., dihydrochloride) is reported as 2.1 mg/kg. For the same molecule, the “Anti-ulcer ED 50” value in data set [4] (dihydrochloride) was determined as 25 mg/kg.
With `Cc1ccc(CSc2nc3cc4c(cc3[nH]2)CCC4)nc1.Cl.Cl` [1,5,6,7-tetrahydro-2-[[(5-methyl-2-pyridyl)methyl]thio]indeno(5,6-d)imidazole dihydrochloride], the ED50 came to 28 mg/kg in data set [1] (setting [5]), 50 mg/kg in data set [1] (setting [6]), 3.6 mg/kg in data set [2] and 34 mg/kg in data set [4]. For the same molecule, in data set [3], the LD50 came to 1250 mg/kg.
